Measured values published in publication PMC12040169 (PLOS Biology, 2025).

Test: in vitro
Conditions: human, hela cells, % viability

| SMILES | viability at 28.5 h, 10 µM |
| --- | --- |
| COC(=O)c1ccc(N2CCN(Cc3nnnn3C3CC3)C(C)C2)cc1 (stereo not drawn) [CBK306129] | 89.6% |
| Cn1ccnc1C(NC(=O)C1C2CCCCC21)c1ccc(F)cc1 (stereo not drawn) [CBK281441] | 98.7% |
| Cn1ccc(C(=O)N2CCOC(c3nc(C(C)(C)C)n[nH]3)C2)cc1=O (stereo not drawn) [CBK305201] | 106% |
| CN1CCN(c2ccc(NC(=O)c3cccc(-c4cc5ccccc5oc4=O)c3)cc2Cl)CC1 [CBK269689] | 83.5% |
| Cn1nccc1CCNS(=O)(=O)c1cccc(C(=O)N2CCCCC2)c1 [CBK307086] | 89.2% |
| Cc1ccc(SCCC(=O)NC(CCC(=O)O)C(=O)O)cc1 (stereo not drawn) [CBK295173] | 88% |
| COc1cc(CNC23CC4CC(CC(C4)C2)C3)c(Cl)cc1OCC(=O)O [CBK269567] | 87.6% |
| COC[C@H]1CCCN1C(=O)CC[C@H]1CNC(=O)[C@@H]2[C@@H](CCN2C2CCCCC2)N1C [CBK289039] | 89.7% |
| O=C(c1sc2ccccc2c1Cl)n1cnc2ccccc21 [CBK262216] | 101% |
| COc1ccc(C(=O)N(CCC(C)C)Cc2nc(C)c(C)n2Cc2ccccc2Cl)c(OC)c1 [CBK093441] | 86.2% |
| Cc1nccn1CCCn1cncc1-c1ccc2c(c1)CC(C)N2C (stereo not drawn) [CBK281818] | 87.8% |
| Cc1ccc(OCc2occc2C(=O)N2CCCn3cncc3C2)cc1 [CBK306618] | 92.7% |
| Cc1[nH]c(=O)[nH]c(=O)c1CC(=O)N1CCCCC1CN1CCCCC1 (stereo not drawn) [CBK286344] | 98.8% |
| O=C(CSc1ccccn1)Nc1ccccc1-c1ccccc1 [CBK263553] | 90.6% |
| CCN1CCC[C@@H]1CNc1cc(NS(=O)(=O)c2cccs2)cc2ccoc12 [CBK067904C] | 83.3% |
| Cc1cccc(=O)n1CCCn1cnc2nccnc2c1=O [CBK307186] | 116% |
| COc1cc(OC)c(NC(=O)C(C)Oc2ccc(Cl)c(C)c2)cc1Cl (stereo not drawn) [CBK269697] | 89.7% |
| CC(C)(CO)NC(=O)c1cc(S(=O)(=O)N2CCOCC2)ccc1Cl [CBK269748] | 94% |
| COc1ccc(-c2ccc(N3CCN(CCN(C)C)CC3)nc2)cc1OC [CBK036818] | 98.2% |
| CCn1c2c(c(=O)[nH]c1=O)C(c1ccccc1)C1=C(COC1=O)N2 (stereo not drawn) [CBK287704] | 95.6% |
| O=C(O)c1cccc(S(=O)(=O)Nc2nc3ccccc3s2)c1 [CBK161138] | 102% |

| SMILES | viability at 28.5 h, 10 µM |
| --- | --- |
| O=C1CC(N2CCN(C/C=C/c3ccccc3)CC2)C(=O)N1CCc1ccccc1 (stereo not drawn) [CBK262082] | 83.6% |
| O=C(Nc1ccc(Br)cc1C(=O)c1ccccc1)c1ccc([N+](=O)[O-])s1 [CBK066838] | 111% |
| CS(=O)(=O)c1ccc(CN2C(=O)CC3(CCN(C(=O)Cc4cccs4)CC3)C2=O)cc1 [CBK155013] | 100% |
| COCCn1c(SCc2ccc([N+](=O)[O-])cc2)nnc1-c1ccccc1 [CBK265937] | 89.6% |
| O=C(c1cccnc1)N1CCN(CCN2C(=O)C3C4C=CC(C4)C3C2=O)CC1 (stereo not drawn) [CBK263639] | 98.2% |
| Fc1ccc2nc(Nc3nnc(-c4ccco4)o3)sc2c1 [CBK287488] | 94.5% |
| CCN(CC)S(=O)(=O)c1c(C)[nH]c(=O)[nH]c1=O [CBK018721] | 94.1% |
| COc1ccc(CC(=O)NCc2nc(-c3ccc(OC)cc3)no2)cc1 [CBK270043] | 92% |
| Cc1sc2nc(SCC(=O)c3c[nH]c4ccccc34)nc(O)c2c1C [CBK264068] | 80.9% |
| COc1cncc(-c2cncc(N[C@H](C)c3ccccc3)n2)c1 [CBK065537] | 98.9% |
| CC(C)CNc1nc(-c2cccc(N(C)C)c2)cnc1N [CBK063870] | 97% |
| CSC(C)C(=O)N(C)C1CCN(c2ncnc3ccccc23)CC1 (stereo not drawn) [CBK305300] | 83.4% |
| OC1(c2ccc(F)cc2)CC2CCC(C1)N2 (stereo not drawn) [CBK281947] | 89.7% |
| O=C(/C=C/c1ccco1)NC(=S)Nc1ccccc1[N+](=O)[O-] [CBK264375] | 117% |
| COc1ccc(-c2cc(C(=O)NCC(O)c3ccc4ccccc4c3)cnc2-c2ccccc2)cn1 (stereo not drawn) [CBK037562] | 103% |
| Nc1cc(=O)[nH]c(=O)n1Cc1ccc(Cl)cc1 [CBK288002] | 112% |
| Cc1nn(C)c(Cl)c1S(=O)(=O)Nc1cccnc1N1CCOCC1 [CBK062286] | 99.5% |
| O=S(=O)(CCN1CCN(Cc2ccccc2)CC1)c1ccc(F)cc1 [CBK074809] | 108% |
| O=C(C1CC1)N1CC2CCCC(C1)C2(O)c1cccnc1F (stereo not drawn) [CBK282889] | 99.6% |
| O=C(NCCN1CCCCC1)C1CC(=O)N(CCc2ccccc2)C1 (stereo not drawn) [CBK305986] | 91.7% |
| CC(C)(C)c1ccc(S(=O)(=O)N2CCSC2)cc1 [CBK095672] | 101% |

| SMILES | viability at 28.5 h, 10 µM |
| --- | --- |
| CC(NC(=O)c1ncoc1-c1ccc(F)cc1)c1ccccn1 (stereo not drawn) [CBK283846] | 90.9% |
| COc1cc(/C=N/NC(=O)c2ccccn2)ccc1OC(=O)c1cccc2ccccc12 [CBK262110] | 94.4% |
| O=C(O)c1cccc(NS(=O)(=O)c2cc3ccccc3o2)c1 [CBK200423] | 97.4% |
| COc1ccc(C)cc1S(=O)(=O)N(C)CC(=O)Nc1cccc(SC)c1 [CBK267510] | 101% |
| COc1ccc(C23CCCN(C)C2C[C@@H](O)CC3)cc1OC (stereo partly drawn) [CBK016226C] | 94.1% |
| O=C(CN(c1cc(C(F)(F)F)ccc1Cl)S(=O)(=O)c1ccccc1)NCc1cccnc1 [CBK264607] | 94.4% |
| Cn1c(C(C)(C)C)cs/c1=N\NS(=O)(=O)c1ccccc1 [CBK006830B] | 110% |
| O=C(O)COCC(=O)N1CCN(C(c2ccccc2)c2ccccc2)CC1 [CBK232579] | 84.3% |
| O=[N+]([O-])c1ccc(NCCCNS(=O)(=O)c2ccc(Cl)cc2)c(Cl)c1 [CBK262543] | 90.6% |
| O=c1cc(O)c2c(=O)n(-c3ccccc3)c(-c3ccccc3)cc2o1 [CBK006116] | 89.1% |
| CC(C)C(CO)NC(=O)C1(Cc2ccc(-c3ccc(F)c(F)c3)cc2)CCOCC1 (stereo not drawn) [CBK286525] | 87.7% |
| CC(C)Nc1nc2cc(Cl)c(Cl)cc2nc1OCCCN(C)C [CBK115282] | 93.1% |
| CCOc1ccccc1N1C(=O)CC(Sc2nc(-c3ccccc3)c3cc(Cl)ccc3n2)C1=O (stereo not drawn) [CBK265405] | 116% |
| Cc1cccn2c(CN3CCCC(O)C3)c(C(=O)N3CCCCC3)nc12 (stereo not drawn) [CBK307342] | 94% |
| CCCC/C=C/c1cnc(N)c(N[C@@H](C)c2ccccc2)n1 [CBK063722] | 109% |
| CCN(CC)C(=O)Cn1nc2c(C)cc3cc(C)ccc3n2c1=O [CBK283871] | 86.4% |
| O=C(c1nc2ccccc2[nH]1)N1CCc2ccccc2C1 [CBK200341] | 100% |
| O=C(NCCCNc1ccc(C(F)(F)F)cc1[N+](=O)[O-])c1ccc(Cl)cc1 [CBK263721] | 99% |
| CSCCCNC(=O)N1CCNC(=O)C1 [CBK155848] | 98.3% |
| O=C(c1cn2ccccc2n1)N1CCC(c2ccccc2)C1 (stereo not drawn) [CBK281850] | 104% |
| COc1cccc(CCN2CCC(C(=O)NC(c3ccc(F)cc3)c3nc(OC)cc(OC)n3)CC2)c1 (stereo not drawn) [CBK148089] | 92.2% |
